This is an account of results in patent US9872919B2, “Prodrugs for selective anticancer therapy” (THE RESEARCH FOUNDATION FOR THE STATE UNIVERSITY OF NEW YORK, priority 2012, dated 2018).

Series [1] has as its system CCD841-CoN cells. As to the kind of experiment: MTS cell viability assay, normal colon cells. Type of series: cell-based, human. As to conditions: negative control in pancreatic and prostate panels. The procedure: FIG. 15. Inhibition of cell viability by BKAc-Puro. The cell lines were grown and analyzed as in FIG. 12.
FIG. 18. Selective cytotoxicity by BKAc-Puro on pancreatic cancer cells. Pancreatic cancer (BXPC-3 and Miapaca-2), colon cancer (HCT116 as a positive control sensitive to the drug), and normal colon (CCD841-CoN as a negative control) cells were grown and analyzed as in FIG. 13. BKAc-Puro can effectively cause cell death on pancreatic cancer cells (BXPC-3 and MiaPaca-2) that are known to resistant to conventional chemotherapeutic drugs including 5-FU and Gemicitabine.
(§1) FIG. 19. Selective cytotoxicity by BKAc-Puro on prostate cancer cells. Prostate cancer (PC-3, DU-145, and LNCaP), colon cancer (HCT116 as a positive control sensitive to the drug), and normal colon (CCD841-CoN as a negative control) cells were grown and analyzed as in FIG. 13. BKAc-Puro can effectively cause cell death on prostate cancer cells.
Cell number was determined by cell counting using improved Neubauer hemacytometer. Cell viability was calculated as the number of viable cells divided by the total number of cells using Trypan Blue Stain (Invitrogen) to distinguish non-viable cells. Data were obtained from duplicated samples with quadruplicate measurements. […] After additional 2-3 h incubation, the absorbance of the formazan at 490 nm was measured by the microplate reader. […]
(Formazan colour is commonly taken as a measure of viable cells.)

Series [2] relates to malignant cell lines with high HDAC and CTSL activity (COGA-10, HCA-7, HT29, HCT116). As to the kind of experiment: MTS cell viability assay, malignant colon cancer cell lines. Type of series: cell-based, human. The settings on record: 5 d, panel of colon cell lines, given as a range, read-out: IC50, inhibition of cell viability. As to the method:
FIG. 13. Inhibition of cell viability by BKAc-Puro is presented in dose-response curve format for the same cell lines as in FIG. 8. The cell lines were treated with DMSO or the indicated doses of agent (4.22, 8.44, 16.9, 33.8, 67.5, or 135 μM) for 5 d followed by MTS assay. Data represent mean values of triplicate mesurements±s.d. (n=3). IC50 values were fit by logistic regression.
(§2) Cell number was determined by cell counting using improved Neubauer hemacytometer. Cell viability was calculated as the number of viable cells divided by the total number of cells using Trypan Blue Stain (Invitrogen) to distinguish non-viable cells. Data were obtained from duplicated samples with quadruplicate measurements. MTS based cell viability assay was performed using CellTiter 96 Aqueous Cell Proliferation Assay (Promega) according to the manufacturer's instruction. […] After additional 2-3 h incubation, the absorbance of the formazan at 490 nm was measured by the microplate reader. […] Determination of non-viable cells using PI staining was performed by adding 1 μg/ml of PI solution (Sigma) to the cell culture, prior to the examination under fluorescence microscopy (Axiovert 3, Carl Zeiss) through a×32 objective equipped with a digital imaging processor (Infinity 3, Lumenera).

Series [3] concerns prostate cancer cells (PC-3, DU-145 and LNCaP). As to the kind of experiment: Cytotoxicity on prostate cancer cells (MTS). Type of series: cell-based, human. As to the method:
as §1, §2

Series [4] relates to malignant colon cancer cells with high HDAC and CTSL activity. As to the kind of experiment: Cell number, trypan blue viability and PI staining, malignant colon cancer cells. Type of series: cell-based, human. As to conditions: 54 μM. As to the method: FIG. 9. The colon cancer cell lines were grown for 5 d either with vehicle control DMSO (gray symbols) or 54 μM BKAc-Puro (red and blue symbols), and cell number was determined at the indicated time points.
FIG. 10. The cell lines were grown as in FIG. 8, cell viability was determined by trypan blue at the indicated time points, and is presented as the percentage of live cells treated with vehicle control (gray symbols) or BKAc-Puro (red and blue symbols).
FIG. 11. The cell lines were grown as in FIG. 8, and dead cells were determined after 80 h by PI signal under fluorescent microscope. BF, bright field. PI, fluorescent PI channel.
FIG. 12. Selective cytotoxicity by BKAc-Puro. The cell lines were grown and analyzed as in FIG. 10. […]
as §2, with “cells.” for “cells. Data were obtained from duplicated samples with quadruplicate measurements. MTS based cell viability assay was performed using CellTiter 96 Aqueous Cell Proliferation Assay (Promega) according to the manufacturer's instruction.”

Series [5] concerns normal mammary gland epithelial cells (Eph4). As to the kind of experiment: PI staining cytotoxicity, normal mammary gland epithelial cells. Type of series: cell-based, mouse. The procedure:
FIG. 17. Selective cytotoxicity by BKAc-Puro on breast cancer cells. Normal mammary gland epithelial cells (Eph4) and breast cancer cells (MCF-7 and MDA-MB-231) were grown and analyzed as in FIG. 10. BF, bright field. PI, fluorescent PI channel. BKAc-Puro can selectively cause cell death in breast cancer cells (MCF-7 and MDA-MB-231) while leaving normal Eph4 cells unharmed.
as §2

In series [6] the test system is HCT116 xenograft tumors.
Description: HCT116 cells were implanted subcutaneously into female nude mice. When the developed tumors reached 200 mm^3, animals were intraperitoneally injected by the indicated dose of the compound or vehicle control (DMSO). Tumor volume was estimated by the equation vol=(a×b^2)/2, where vol, a, and b represent volume, the length of the major axis, and the length of the minor axis, respectively. […] (b) Body weight change during the treatment in a. Value is expressed in percent change compared to the day of the first treatment.
HCT116 cells were implanted subcutaneously into female nude mice. When palpable tumors reached 50-150 mm^3, animals were randomized and treated by the indicated dose of the compound or vehicle control (DMSO) via intraperitoneal injection. Tumor incidence is presented as number of mice developed tumor (volume>300 mm^3) after 2 weeks of daily treatment/number of mice treated. Tumor volume was estimated by the equation vol=(a×b^2)/2, where vol, a, and b represent volume, the length of the major axis, and the length of the minor axis, respectively.
The growth inhibitory effects of the compounds on size-matched xenografts are examined by subcutaneous implantation of HCT116 cells into nude mice. HCT116 cells are injected subcutaneously and allowed to develop palpable tumors (50-150 mm^3) before initiation of drug administration. Mice (5-10 animals per group) are treated with the vehicle (DMSO or PBS) or the prodrugs by intraperitoneal administration. […] Tumor volumes are approximated by using the equation vol=(a×b^2)/2, where vol, a, and b represent volume, the length of the major axis, and the length of the minor axis, respectively. Relative tumor volume is calculated by dividing tumor volume by that on day 0 (the day of treatment initiation). The weight of the mice is checked to monitor unfavorable effects by the compounds being tested and upon any indication of distress the mice is humanely euthanized.
Series [7] deals with pancreatic cancer cells (BXPC-3 and MiaPaca-2). As to the kind of experiment: MTS cell viability assay, pancreatic cancer cell lines. The series is classed as cell-based, human. The procedure:
FIG. 16. Anticancer effect of BKAc-Puro on pancreatic cell lines. The cell lines were treated with DMSO (vehicle), BKAc-Puro (54 μM), or Puro (4.2 μM) for 5 d followed by MTS assay. Normal Eph4 (non-pancreatic) cells are shown as control. Data represent mean values of triplicate mesurements±s.d.
FIG. 18. Selective cytotoxicity by BKAc-Puro on pancreatic cancer cells. Pancreatic cancer (BXPC-3 and Miapaca-2), colon cancer (HCT116 as a positive control sensitive to the drug), and normal colon (CCD841-CoN as a negative control) cells were grown and analyzed as in FIG. 13. […]
as §2, with “cells.” for “cells. Data were obtained from duplicated samples with quadruplicate measurements. MTS based cell viability assay was performed using CellTiter 96 Aqueous Cell Proliferation Assay (Promega) according to the manufacturer's instruction.”

As a reminder, the IC50 is the point on the concentration scale where inhibition reaches its midpoint. For `COc1ccc(C[C@H](NC(=O)[C@H](CCCCNC(C)=O)NC(=O)OC(C)(C)C)C(=O)N[C@H]2[C@@H](O)[C@H](n3cnc4c(N(C)C)ncnc43)O[C@@H]2CO)cc1` [BKAc-Puro, N-[3′-(α-Amino-p-methoxyhydrocinnamamido)-3′-deoxy-N,N-dimethyldenosinyl]-N-α-(t-butoxycarbonyl)-N-ε-acetyl-L-lysineamide], in series [1], the “effect on normal colon cells” value is on record as “relatively little effect”. For the same compound, in series [2], the IC50 is ~10 µM. The cell death result was “effectively caused cell death” in series [3]; “unharmed” in series [5]; “effectively caused cell death” in series [7] (cells known to be resistant to 5-FU and Gemicitabine). Besides, the “cell proliferation (cell number)” value in series [4] (5 d, all four malignant cells) is on record as “impaired the proliferation”. Also, the “cell death (trypan blue exclusion, morphology, PI staining)” value in series [4] (colon cell line panel) is given as “massive cell death wass detected only in the malignant cells”. In addition, in series [6] (200 mg/kg, intraperitoneal), the “tumor incidence (tumor volume above threshold after 2 weeks of daily treatment)” value is “no tumors greater than 300 mm^2 were observed”. In addition, in series [6] (intraperitoneal, tumors 200 mm^3 at start), the tumor growth entry is listed as “inhibition of tumor growth”. Moreover, the “toxicity in tumor incidence study” value in series [6] (mouse, in vivo) was “no toxicity was observed”. For the same compound, the “anticancer effect on cell viability” value in series [7] (54 μM, 5 d, MTS) is on record as “effective”.
